Reference: patent US8758816B2, “Compositions comprising azelastine and methods of use thereof” (priority 2004, dated 2014)

Tested on: patients with seasonal allergic rhinitis (SAR)
Assay: MP 428 study: individual symptom severity scores (runny nose, itchy nose, sneezing, congestion; 0-3 scale)
Format: in vivo, human
Conditions: Intent-to-Treat Population
Method: A two-week, randomized, double-blind study, which evaluated the effects of the co-administration of ASTELIN® (azelastine hydrochloride (HCl)) and FLONASE® (fluticasone propionate) compared to either product alone in patients with seasonal allergic rhinitis (SAR) was conducted during the 2006 Texas mountain cedar season. After a 5-day placebo lead-in period, 151 patients with moderate-to-severe allergic rhinitis symptoms were randomized to either: (1) (49 total patients) ASTELIN® (azelastine hydrochloride (HCl)) plus placebo saline nasal spray 2 sprays per nostril, 15 minutes apart, twice daily (AM & PM); (2) (50 total patients) FLONASE® (fluticasone propionate) plus placebo saline nasal spray, 2 sprays per nostril, 15 minutes apart, once daily (AM) and two sessions of placebo saline nasal spray, 2 sprays per nostril, 15 minutes apart (PM); or (3) (52 total patients) the co-administration of ASTELIN® (azelastine hydrochloride (HCl)) 2 sprays per nostril plus FLONASE® (fluticasone propionate) 2 sprays per nostril (AM), 15 minutes apart, and ASTELIN® (azelastine hydrochloride (HCl)) 2 sprays per nostril plus placebo saline nasal spray, 15 minutes apart, (PM) for a 2-week double-blind treatment period.
The primary efficacy variable was the change from baseline in the Total Nasal Symptom Score (TNSS), which comprised sneezing, itchy nose, runny nose, and nasal congestion (individual symptoms scores were assigned a value between 0 and 3, where 0=no symptoms and 3=severe symptoms). This study was not statistically designed to assess the differences between ASTELIN® and FLONASE®.
The results of the clinical trial are summarized and presented in Appendix A hereinbelow and in FIGS. 1-6. […] FIGS. 2-5 show the mean improvement in severity score (0-3 scale) from baseline for the symptoms of runny nose, itchy nose, sneezing and congestion, respectively.

## CCC(=O)O[C@]1(C(=O)SCF)[C@H](C)C[C@H]2[C@@H]3C[C@H](F)C4=CC(=O)C=C[C@]4(C)[C@@]3(F)[C@@H](O)C[C@@]21C [Fluticasone, fluticasone propionate]
Day 2
  Change from Baseline in AM and PM Combined Nasal Symptom Score: Congestion, LS Mean: −0.59
  Change from Baseline in AM and PM Combined Nasal Symptom Score: Congestion, Mean: −0.65
  Change from Baseline in AM and PM Combined Nasal Symptom Score: Congestion, Median: −0.30
  Change from Baseline in AM and PM Combined Nasal Symptom Score: Itchy Nose, LS Mean: −0.61
  Change from Baseline in AM and PM Combined Nasal Symptom Score: Itchy Nose, Mean: −0.66
  Change from Baseline in AM and PM Combined Nasal Symptom Score: Itchy Nose, Median: −0.40
  Change from Baseline in AM and PM Combined Nasal Symptom Score: Runny Nose, LS Mean: −0.86
  Change from Baseline in AM and PM Combined Nasal Symptom Score: Runny Nose, Mean: −0.90
  Change from Baseline in AM and PM Combined Nasal Symptom Score: Runny Nose, Median: −1.00
  Change from Baseline in AM and PM Combined Nasal Symptom Score: Sneezing, LS Mean: −1.06
  Change from Baseline in AM and PM Combined Nasal Symptom Score: Sneezing, Mean: −1.03
  Change from Baseline in AM and PM Combined Nasal Symptom Score: Sneezing, Median: −1.00
  Percent Change from Baseline in AM and PM Combined Nasal Symptom Score: Congestion, LS Mean: −10.84%
  Percent Change from Baseline in AM and PM Combined Nasal Symptom Score: Congestion, Mean: −11.97%
  Percent Change from Baseline in AM and PM Combined Nasal Symptom Score: Congestion, Median: −5.66%
  Percent Change from Baseline in AM and PM Combined Nasal Symptom Score: Itchy Nose, LS Mean: −12.72%
  Percent Change from Baseline in AM and PM Combined Nasal Symptom Score: Itchy Nose, Mean: −14.27%
  Percent Change from Baseline in AM and PM Combined Nasal Symptom Score: Itchy Nose, Median: −8.39%
  Percent Change from Baseline in AM and PM Combined Nasal Symptom Score: Runny Nose, LS Mean: −12.11%
  Percent Change from Baseline in AM and PM Combined Nasal Symptom Score: Runny Nose, Mean: −12.95%
  Percent Change from Baseline in AM and PM Combined Nasal Symptom Score: Runny Nose, Median: −16.67%
  Percent Change from Baseline in AM and PM Combined Nasal Symptom Score: Sneezing, LS Mean: −22.64%
  Percent Change from Baseline in AM and PM Combined Nasal Symptom Score: Sneezing, Mean: −22.69%
  Percent Change from Baseline in AM and PM Combined Nasal Symptom Score: Sneezing, Median: −16.67%
Day 3
  Change from Baseline in AM and PM Combined Nasal Symptom Score: Congestion, LS Mean: −0.81
  Change from Baseline in AM and PM Combined Nasal Symptom Score: Congestion, Mean: −0.90
  Change from Baseline in AM and PM Combined Nasal Symptom Score: Congestion, Median: −0.67
  Change from Baseline in AM and PM Combined Nasal Symptom Score: Itchy Nose, LS Mean: −0.99
  Change from Baseline in AM and PM Combined Nasal Symptom Score: Itchy Nose, Mean: −0.97
  Change from Baseline in AM and PM Combined Nasal Symptom Score: Itchy Nose, Median: −0.67
  Change from Baseline in AM and PM Combined Nasal Symptom Score: Runny Nose, LS Mean: −0.96
  Change from Baseline in AM and PM Combined Nasal Symptom Score: Runny Nose, Mean: −1.05
  Change from Baseline in AM and PM Combined Nasal Symptom Score: Runny Nose, Median: −0.80
  Change from Baseline in AM and PM Combined Nasal Symptom Score: Sneezing, LS Mean: −1.29
  Change from Baseline in AM and PM Combined Nasal Symptom Score: Sneezing, Mean: −1.21
  Change from Baseline in AM and PM Combined Nasal Symptom Score: Sneezing, Median: −1.00
  Percent Change from Baseline in AM and PM Combined Nasal Symptom Score: Congestion, LS Mean: −15.34%
  Percent Change from Baseline in AM and PM Combined Nasal Symptom Score: Congestion, Mean: −16.63%
  Percent Change from Baseline in AM and PM Combined Nasal Symptom Score: Congestion, Median: −11.76%
  Percent Change from Baseline in AM and PM Combined Nasal Symptom Score: Itchy Nose, LS Mean: −22.88%
  Percent Change from Baseline in AM and PM Combined Nasal Symptom Score: Itchy Nose, Mean: −22.41%
  Percent Change from Baseline in AM and PM Combined Nasal Symptom Score: Itchy Nose, Median: −15.32%
  Percent Change from Baseline in AM and PM Combined Nasal Symptom Score: Runny Nose, LS Mean: −17.15%
  Percent Change from Baseline in AM and PM Combined Nasal Symptom Score: Runny Nose, Mean: −18.81%
  Percent Change from Baseline in AM and PM Combined Nasal Symptom Score: Runny Nose, Median: −13.79%
  Percent Change from Baseline in AM and PM Combined Nasal Symptom Score: Sneezing, LS Mean: −29.62%
  Percent Change from Baseline in AM and PM Combined Nasal Symptom Score: Sneezing, Mean: −28.44%
  Percent Change from Baseline in AM and PM Combined Nasal Symptom Score: Sneezing, Median: −30.09%
Day 4
  Change from Baseline in AM and PM Combined Nasal Symptom Score: Congestion, LS Mean: −1.00
  Change from Baseline in AM and PM Combined Nasal Symptom Score: Congestion, Mean: −1.06
  Change from Baseline in AM and PM Combined Nasal Symptom Score: Congestion, Median: −1.00
  Change from Baseline in AM and PM Combined Nasal Symptom Score: Itchy Nose, LS Mean: −0.98
  Change from Baseline in AM and PM Combined Nasal Symptom Score: Itchy Nose, Mean: −0.97
  Change from Baseline in AM and PM Combined Nasal Symptom Score: Itchy Nose, Median: −0.90
  Change from Baseline in AM and PM Combined Nasal Symptom Score: Runny Nose, LS Mean: −1.12
  Change from Baseline in AM and PM Combined Nasal Symptom Score: Runny Nose, Mean: −1.17
  Change from Baseline in AM and PM Combined Nasal Symptom Score: Runny Nose, Median: −1.15
  Change from Baseline in AM and PM Combined Nasal Symptom Score: Sneezing, LS Mean: −1.42
  Change from Baseline in AM and PM Combined Nasal Symptom Score: Sneezing, Mean: −1.33
  Change from Baseline in AM and PM Combined Nasal Symptom Score: Sneezing, Median: −1.10
  Percent Change from Baseline in AM and PM Combined Nasal Symptom Score: Congestion, LS Mean: −18.75%
  Percent Change from Baseline in AM and PM Combined Nasal Symptom Score: Congestion, Mean: −19.51%
  Percent Change from Baseline in AM and PM Combined Nasal Symptom Score: Congestion, Median: −16.67%
  Percent Change from Baseline in AM and PM Combined Nasal Symptom Score: Itchy Nose, LS Mean: −20.59%
  Percent Change from Baseline in AM and PM Combined Nasal Symptom Score: Itchy Nose, Mean: −20.31%
  Percent Change from Baseline in AM and PM Combined Nasal Symptom Score: Itchy Nose, Median: −16.67%
  Percent Change from Baseline in AM and PM Combined Nasal Symptom Score: Runny Nose, LS Mean: −17.17%
  Percent Change from Baseline in AM and PM Combined Nasal Symptom Score: Runny Nose, Mean: −18.21%
  Percent Change from Baseline in AM and PM Combined Nasal Symptom Score: Runny Nose, Median: −22.33%
  Percent Change from Baseline in AM and PM Combined Nasal Symptom Score: Sneezing, LS Mean: −31.80%
  Percent Change from Baseline in AM and PM Combined Nasal Symptom Score: Sneezing, Mean: −30.67%
  Percent Change from Baseline in AM and PM Combined Nasal Symptom Score: Sneezing, Median: −27.36%
Day 5
  Change from Baseline in AM and PM Combined Nasal Symptom Score: Congestion, LS Mean: −1.00
  Change from Baseline in AM and PM Combined Nasal Symptom Score: Congestion, Mean: −1.06
  Change from Baseline in AM and PM Combined Nasal Symptom Score: Congestion, Median: −0.83
  Change from Baseline in AM and PM Combined Nasal Symptom Score: Itchy Nose, LS Mean: −1.16
  Change from Baseline in AM and PM Combined Nasal Symptom Score: Itchy Nose, Mean: −1.15
  Change from Baseline in AM and PM Combined Nasal Symptom Score: Itchy Nose, Median: −1.00
  Change from Baseline in AM and PM Combined Nasal Symptom Score: Runny Nose, LS Mean: −1.42
  Change from Baseline in AM and PM Combined Nasal Symptom Score: Runny Nose, Mean: −1.43
  Change from Baseline in AM and PM Combined Nasal Symptom Score: Runny Nose, Median: −1.05
  Change from Baseline in AM and PM Combined Nasal Symptom Score: Sneezing, LS Mean: −1.61
  Change from Baseline in AM and PM Combined Nasal Symptom Score: Sneezing, Mean: −1.52
  Change from Baseline in AM and PM Combined Nasal Symptom Score: Sneezing, Median: −1.33
